Reference: PubChem BioAssay (NCI)
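In this assay, cells in 96-well plates receive the compound at five concentrations for 48 hours. Endpoints are linearly interpolated between the surrounding concentrations. TGI: total growth inhibition.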

Experiments:
Test in all cases: growth of human tumour cells (NCI), 48 h
COLO 205 colon = tested on: COLO 205 colon
HCT-116 colon = tested on: HCT-116 colon
HCT-15 colon = tested on: HCT-15 colon
HS 578T breast = tested on: HS 578T breast
IGROV1 ovarian = tested on: IGROV1 ovarian
K-562 leukemia = tested on: K-562 leukemia
MCF7 breast = tested on: MCF7 breast
MDA-MB-231 breast = tested on: MDA-MB-231 breast
NCI/ADR-RES ovarian = tested on: NCI/ADR-RES ovarian
OVCAR-3 ovarian = tested on: OVCAR-3 ovarian
OVCAR-5 ovarian = tested on: OVCAR-5 ovarian
PC-3 prostate = tested on: PC-3 prostate
RPMI-8226 leukemia = tested on: RPMI-8226 leukemia
SF-539 CNS = tested on: SF-539 CNS
SN12C renal = tested on: SN12C renal
SNB-19 CNS = tested on: SNB-19 CNS
SNB-75 CNS = tested on: SNB-75 CNS
SR leukemia = tested on: SR leukemia
TK-10 renal = tested on: TK-10 renal

| Compound | TGI (COLO 205 colon) [µM] | TGI (HCT-116 colon) [µM] | TGI (HCT-15 colon) [µM] | TGI (HS 578T breast) [µM] | TGI (IGROV1 ovarian) [µM] | TGI (K-562 leukemia) [µM] | TGI (MCF7 breast) [µM] | TGI (MDA-MB-231 breast) [µM] | TGI (NCI/ADR-RES ovarian) [µM] | TGI (OVCAR-3 ovarian) [µM] | TGI (OVCAR-5 ovarian) [µM] | TGI (PC-3 prostate) [µM] | TGI (RPMI-8226 leukemia) [µM] | TGI (SF-539 CNS) [µM] | TGI (SN12C renal) [µM] | TGI (SNB-19 CNS) [µM] | TGI (SNB-75 CNS) [µM] | TGI (SR leukemia) [µM] | TGI (TK-10 renal) [µM] |
| --- | --- | --- | --- | --- | --- | --- | --- | --- | --- | --- | --- | --- | --- | --- | --- | --- | --- | --- | --- |
| Cc1cc(S(=O)(=O)Nc2n[nH]c(Nc3ccc(Cl)cc3)n2)c(S)cc1Cl | > 100 | > 100 | > 100 | > 100 | > 100 | > 100 | > 100 | > 100 | > 100 | > 100 | > 100 | > 100 | > 100 | > 100 | > 100 | > 100 | > 100 | > 100 | > 100 |
| CC(Nc1ncc2c(n1)-c1ccccc1OC2)C(=O)O (stereo not given) | > 100 | > 100 | > 100 | > 100 | > 100 | > 100 | > 100 | > 100 | > 100 | > 100 | > 100 | > 100 | > 100 | > 100 | > 100 | > 100 | > 100 | > 100 | > 100 |
| N#Cc1cc(C#N)c(N)nc1N | > 100 | > 100 | > 100 | > 100 | > 100 | > 100 | > 100 | > 100 | > 100 | > 100 | > 100 | > 100 | > 100 | > 100 | > 100 | > 100 | > 100 | > 100 | > 100 |
| C=C=C(CC1CCCCC1=O)S(=O)(=O)c1ccccc1 (stereo not given) | > 10 | > 4.94 | > 10 | > 10 | > 10 | > 10 | > 10 | > 10 | > 10 | > 10 | > 10 | > 10 | > 4.76 | > 10 | > 10 | > 10 | > 10 | > 6.03 | > 10 |
| COc1cc(OC)c2c(c1)OC(c1ccccc1)CC2=O (stereo not given) | > 10 | > 10 | > 10 | > 10 | > 10 | > 10 | > 10 | > 10 | > 10 | > 10 | > 10 | > 10 | > 10 | > 10 | > 10 | > 10 | > 10 | > 10 | > 10 |
| N=C1OC(CN2CCN(c3ccccc3)CC2)CN1C(=S)Nc1ccccc1 (stereo not given) | > 100 | > 100 | > 100 | > 100 | > 100 | > 100 | > 100 | > 100 | > 100 | > 100 | > 100 | > 100 | > 100 | > 100 | > 100 | > 100 | > 100 | > 100 | > 100 |
| CC(C)=CCC[C@@H](C)/C=C/C=C(\C)C(=O)CC[C@@H]1CC[N@+]2(C)CCCC[C@H]12 | > 100 | > 100 | > 100 | > 100 | > 100 | > 100 | > 100 | > 100 | > 100 | > 100 | > 100 | > 100 | > 100 | > 100 | > 100 | > 100 | > 100 | > 100 | > 100 |
| C=CCN(c1cc(OCc2ccccc2)c2[nH]cc(C)c2c1)S(C)(=O)=O | > 100 | > 100 | > 100 | > 100 | > 100 | > 100 | > 100 | > 100 | > 100 | > 100 | > 100 | > 100 | > 100 | > 100 | > 100 | > 100 | 55.6 | > 100 | > 100 |
| O=C1/C(=C\Oc2ccc(F)cc2)N2CCC1CC2 | > 100 | > 100 | > 100 | > 100 | > 100 | > 100 | > 100 | > 100 | > 100 | > 100 | > 100 | > 100 | > 100 | > 100 | > 100 | > 100 | > 100 | 63.1 | > 100 |
| CC(C)C1C(=O)N(c2c(F)c(F)c(F)c(F)c2F)C(=S)N1CCS(=O)c1ccccc1 (stereo not given) | 29.9 | 34.7 | 31.8 | 62.6 | 34.4 | 39.6 | 35.3 | 32 | 40.8 | 30.5 | 32.5 | 29.3 | 53.8 | 36.2 | 31 | 34.6 | > 58.7 | 16.2 | 52 |
| CCOc1cc(C2SCC(=O)N2c2ccc(Oc3ccc(Cl)cc3)c(Cl)c2)ccc1O (stereo not given) | 41.3 | 25.1 | 37 | 37.1 | 32 | > 100 | 56.4 | 36 | 36.9 | 30.6 | 53.3 | 33.4 | 80.1 | 32.5 | 59.3 | 34.8 | 37.3 | 25.2 | 34.2 |
| CC#CC(O)(C(=O)OCCCN(C)C)C1CCCCC1 (stereo not given) | > 100 | > 100 | > 100 | > 100 | > 100 | > 100 | > 100 | > 100 | > 100 | > 100 | > 100 | > 100 | > 100 | > 100 | > 100 | > 100 | > 100 | > 100 | > 100 |
| CC(=O)Nc1ccc(NCC(=O)Nn2cnc3ccc(S(=O)(=O)Nc4ccc(NC(C)=O)cc4)cc3c2=O)cc1 | > 100 | > 100 | > 100 | > 100 | > 100 | > 100 | > 100 | > 100 | > 100 | > 100 | > 100 | > 100 | > 100 | > 100 | > 100 | > 100 | > 100 | > 100 | > 100 |
| CCc1n[nH]c(=O)n1/N=C/c1ccccc1O | > 100 | > 100 | > 100 | 99 | > 100 | > 100 | > 100 | > 100 | > 100 | > 100 | > 100 | > 100 | > 100 | > 100 | > 100 | > 100 | > 100 | > 100 | > 100 |
| c1ccc2c(Cc3[nH]c4ccccc4c3Cc3c[nH]c4ccccc34)c[nH]c2c1 | 3.99 | 3.47 | 10.5 | 5.54 | 13.7 | 10.5 | > 26.5 | 5.29 | 17.2 | 9.68 | 8.93 | 8.37 | 12.2 | 7.03 | 4.2 | 25.3 | 9.69 | 15.1 | 8.1 |
| O=C(NC1(c2cc3ccccc3s2)CCCCC1)C1CCC1 | > 100 | > 100 | > 100 | 83.7 | > 100 | > 100 | > 100 | > 100 | > 100 | > 100 | > 100 | > 100 | > 100 | > 100 | > 100 | > 100 | > 100 | > 100 | > 100 |
| CC(=O)Nc1c(S(=O)(=O)c2ccccc2)c(C)c(C)n1CCN(C)C | > 100 | > 100 | > 100 | > 100 | > 100 | > 100 | > 100 | > 100 | > 100 | > 100 | > 100 | > 100 | > 100 | > 100 | > 100 | > 100 | > 100 | > 100 | > 100 |
| CC(=O)C(=[N+]=[N-])C(=O)N1CCOC1=O | > 10 | > 10 | > 10 | > 10 | > 10 | > 10 | > 10 | > 10 | > 10 | > 10 | > 10 | > 10 | > 10 | > 10 | > 10 | > 10 | > 10 | > 10 | > 10 |
| O=c1cc(N=Nc2ccc(Br)cc2)[nH]c(=S)[nH]1 | 45.1 | 35.6 | 29.8 | > 100 | > 100 | 54.4 | 42.7 | 34.3 | > 100 | 28.9 | > 100 | > 100 | 57.9 | > 100 | > 100 | > 100 | > 100 | 74.1 | 32.1 |
| CN(C)CCCc1cccc2[nH]c3c(c12)CN(C)CC3 | > 100 | > 100 | > 100 | > 100 | > 100 | > 100 | > 100 | > 100 | > 100 | > 100 | > 100 | > 100 | > 100 | > 100 | > 100 | > 100 | > 100 | 74.3 | > 100 |
| O=c1[nH]c(Cc2ccccc2)nc2c1sc1nc3ccccc3n12 | > 100 | > 100 | > 100 | > 100 | > 100 | > 100 | > 100 | > 100 | > 100 | > 100 | > 100 | > 100 | > 100 | > 100 | > 100 | > 100 | > 100 | > 100 | > 100 |
| COC(=O)/C=C1\C(=O)N(C(C)=O)c2ccc(Br)cc21 | 27.8 | 19.8 | 21.7 | 36.8 | 20.7 | 44.9 | 16.8 | 28.2 | 36.9 | 15.7 | 32.4 | 20.9 | 6.95 | 9.65 | 18.3 | 27.9 | 21.8 | 13.5 | 14.6 |
| O=C1NC(=O)C(F)(n2cc(F)c(=O)[nH]c2=O)C(O)N1 (stereo not given) | > 10 | > 10 | > 10 | > 10 | > 10 | > 10 | > 10 | > 10 | > 10 | > 10 | > 10 | > 10 | > 10 | > 10 | > 10 | > 10 | > 10 | > 10 | > 10 |
| O=C1CSC(/C=C/c2ccccc2)N1c1nc2cc3sc(N4C(=O)CSC4/C=C/c4ccccc4)nc3cc2s1 (stereo not given) | > 29.8 | > 100 | > 100 | > 100 | > 100 | > 100 | > 100 | > 100 | > 100 | > 100 | > 100 | > 100 | > 100 | 9.61 | > 100 | > 100 | > 100 | > 83.7 | > 100 |
| COC(=O)/C(C#N)=C(\Nc1ccccc1)N1CCOCC1 | > 100 | > 100 | > 100 | > 100 | > 100 | > 100 | > 100 | > 100 | > 100 | > 100 | > 100 | > 100 | > 100 | > 100 | > 100 | > 100 | > 100 | > 100 | > 100 |
